These are literature values, as cited in patent US20210113561A1, “PHARMACEUTICAL COMPOSITION, METHODS FOR TREATING AND USES THEREOF” (Boehringer Ingelheim International GmbH, priority 2018, published 2021).

The structures appear in SMILES notation.

One series deals with T1, SGLT2 (Homo sapiens, UniProt P31639).
T1 sequence (P31639 1-672): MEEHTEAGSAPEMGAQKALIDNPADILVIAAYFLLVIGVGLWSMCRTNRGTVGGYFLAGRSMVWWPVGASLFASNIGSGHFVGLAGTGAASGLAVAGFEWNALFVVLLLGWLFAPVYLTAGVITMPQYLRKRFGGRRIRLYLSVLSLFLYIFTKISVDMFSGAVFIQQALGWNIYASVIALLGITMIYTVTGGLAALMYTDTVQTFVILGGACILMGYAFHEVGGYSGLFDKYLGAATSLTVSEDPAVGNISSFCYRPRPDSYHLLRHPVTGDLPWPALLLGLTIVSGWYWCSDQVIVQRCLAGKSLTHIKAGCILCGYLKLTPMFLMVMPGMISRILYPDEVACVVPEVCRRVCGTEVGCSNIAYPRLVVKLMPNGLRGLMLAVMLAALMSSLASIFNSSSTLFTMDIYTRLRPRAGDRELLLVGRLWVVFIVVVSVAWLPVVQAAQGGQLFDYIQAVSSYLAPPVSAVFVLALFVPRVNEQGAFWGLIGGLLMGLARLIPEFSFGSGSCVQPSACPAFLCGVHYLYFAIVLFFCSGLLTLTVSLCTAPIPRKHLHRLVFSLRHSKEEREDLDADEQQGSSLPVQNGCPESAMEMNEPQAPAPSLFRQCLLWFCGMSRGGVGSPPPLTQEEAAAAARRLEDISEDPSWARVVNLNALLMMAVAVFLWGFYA

The conditions of series [1]: patients with type 2 diabetes mellitus at high risk for cardiovascular events.
The conditions of series [2]: metformin on its own, in the diabetic.

Regarding `OC[C@H]1O[C@@H](c2ccc(Cl)c(Cc3ccc(O[C@H]4CCOC4)cc3)c2)[C@H](O)[C@@H](O)[C@@H]1O` [empagliflozin], the “selectivity SGLT2 versus SGLT1” value at SGLT2 is “high selectivity”. For the same compound, in series [1], the “rates of death from any cause” value is on record as “significantly lower rates” and the “rates of the primary composite cardiovascular outcome” value is listed as “significantly lower rates”.

`CN(C)C(=N)N=C(N)N` [metformin]: in series [2], the “average improvement in the HbA1c value” is listed as 1.0-1.5%.
